Earlier results on 1 molecule are cited in publication PMC8136953 (Veterinary Medicine and Science, 2020).

Structures are written as SMILES.

Details of the data set: method as in Park et al., 2006. The settings on record: ref Park et al., 2006; cited from earlier work.

In the case of `CS(=O)(=O)c1ccc([C@@H](O)[C@H](N)CF)cc1` [FLO amine, florfenicol amine], the Antibacterial activity entry is listed as “virtually lacks antibacterial activity”.
